Test: Simulated gastrointestinal dissolution testing (FloVitro apparatus, USP simulated gastric and intestinal fluids)
Format: physicochemical
Details: 100 mg dose
Method: The dissolution test used procedures devised by DOW Chemical using their proprietary FloVitro™ dissolution apparatus described in U.S. Pat. No. 6,799,123B2 and in the publication titled “FloVitro™ Technology” published online at:
The system used two different media that were combined during the process. The fluid flow rates were:
Simulated gastric fluid=7.7 ml/min
Simulated intestinal fluid=13.1 ml/mi
Total flow through analyzer=20.8 ml/min
To Cell 1: USP simulated gastric fluid (no pepsin)
To Cell 2: USP simulated intestinal fluid (pH 6.8) (SIF)
The samples tested were: • a) 100 mg dose neat benzonatate • b) 220.48 mg of IRP69H resinate: 87.97 mg benzonatate dose • c) 225.15 mg of IRP64H resinate: 102.21 mg benzonatate dose a) 100 mg Neat Benzonatate

For `CCCCNc1ccc(C(=O)OCCOCCOCCOCCOCCOCCOCCOCCOCCOC)cc1` [BENZ, benzonatate], the “Concentration of Homolog in Effluent Total” value (120 min) was 18.66 mg/L, the “Concentration of Homolog in Effluent n = 3” value (120 min) was 0.05 mg/L and the “Concentration of Homolog in Effluent n = 4” value (120 min) was 0.20 mg/L. For the same molecule, the “Concentration of Homolog in Effluent n = 5” value (120 min) was 0.53 mg/L, the “Concentration of Homolog in Effluent n = 6” value (120 min) was 1.18 mg/L and the “Concentration of Homolog in Effluent n = 7” value (120 min) was 1.99 mg/L. The “Concentration of Homolog in Effluent n = 8” value (120 min) was 2.67 mg/L, the “Concentration of Homolog in Effluent n = 9” value (120 min) was 3.01 mg/L and the “Concentration of Homolog in Effluent n = 10” value (120 min) was 2.84 mg/L. The “Concentration of Homolog in Effluent n = 11” value (120 min) was 2.44 mg/L, the “Concentration of Homolog in Effluent n = 12” value (120 min) was 1.73 mg/L and the “Concentration of Homolog in Effluent n = 13” value (120 min) was 1.13 mg/L. For the same molecule, the “Concentration of Homolog in Effluent n = 14” value (120 min) was 0.59 mg/L, the “Concentration of Homolog in Effluent n = 15” value (120 min) was 0.31 mg/L and the “Concentration of Homolog in Effluent n = 16” value (120 min) was 0.00 mg/L. The “Concentration of Homolog in Effluent n = 17” value (120 min) was 0.00 mg/L, the “Cumul. (cumulative release in effluent)” value (120 min) was 81.10 mg and the “Concentration of Homolog in Effluent Total” value (180 min) was 9.68 mg/L. The “Concentration of Homolog in Effluent n = 3” value (180 min) was 0.00 mg/L, the “Concentration of Homolog in Effluent n = 4” value (180 min) was 0.10 mg/L and the “Concentration of Homolog in Effluent n = 5” value (180 min) was 0.29 mg/L. For the same molecule, the “Concentration of Homolog in Effluent n = 6” value (180 min) was 0.61 mg/L, the “Concentration of Homolog in Effluent n = 7” value (180 min) was 1.04 mg/L and the “Concentration of Homolog in Effluent n = 8” value (180 min) was 1.41 mg/L. The “Concentration of Homolog in Effluent n = 9” value (180 min) was 1.57 mg/L, the “Concentration of Homolog in Effluent n = 10” value (180 min) was 1.51 mg/L and the “Concentration of Homolog in Effluent n = 11” value (180 min) was 1.26 mg/L. The “Concentration of Homolog in Effluent n = 12” value (180 min) was 0.90 mg/L, the “Concentration of Homolog in Effluent n = 13” value (180 min) was 0.57 mg/L and the “Concentration of Homolog in Effluent n = 14” value (180 min) was 0.30 mg/L. The “Concentration of Homolog in Effluent n = 15” value (180 min) was 0.11 mg/L, the “Concentration of Homolog in Effluent n = 16” value (180 min) was 0.00 mg/L and the “Concentration of Homolog in Effluent n = 17” value (180 min) was 0.00 mg/L. The “Cumul. (cumulative release in effluent)” value (180 min) was 90.57 mg, the “Concentration of Homolog in Effluent Total” value (240 min) was 5.50 mg/L and the “Concentration of Homolog in Effluent n = 3” value (240 min) was 0.00 mg/L. The “Concentration of Homolog in Effluent n = 4” value (240 min) was 0.06 mg/L, the “Concentration of Homolog in Effluent n = 5” value (240 min) was 0.16 mg/L and the “Concentration of Homolog in Effluent n = 6” value (240 min) was 0.36 mg/L. For the same molecule, the “Concentration of Homolog in Effluent n = 7” value (240 min) was 0.60 mg/L, the “Concentration of Homolog in Effluent n = 8” value (240 min) was 0.78 mg/L and the “Concentration of Homolog in Effluent n = 9” value (240 min) was 0.89 mg/L. For the same molecule, the “Concentration of Homolog in Effluent n = 10” value (240 min) was 0.84 mg/L, the “Concentration of Homolog in Effluent n = 11” value (240 min) was 0.70 mg/L and the “Concentration of Homolog in Effluent n = 12” value (240 min) was 0.49 mg/L. The “Concentration of Homolog in Effluent n = 13” value (240 min) was 0.36 mg/L, the “Concentration of Homolog in Effluent n = 14” value (240 min) was 0.17 mg/L and the “Concentration of Homolog in Effluent n = 15” value (240 min) was 0.09 mg/L. For the same molecule, the “Concentration of Homolog in Effluent n = 16” value (240 min) was 0.00 mg/L, the “Concentration of Homolog in Effluent n = 17” value (240 min) was 0.00 mg/L and the “Cumul. (cumulative release in effluent)” value (240 min) was 95.70 mg. The “Concentration of Homolog in Effluent Total” value (300 min) was 2.73 mg/L, the “Concentration of Homolog in Effluent n = 3” value (300 min) was 0.00 mg/L and the “Concentration of Homolog in Effluent n = 4” value (300 min) was 0.00 mg/L. The “Concentration of Homolog in Effluent n = 5” value (300 min) was 0.09 mg/L, the “Concentration of Homolog in Effluent n = 6” value (300 min) was 0.18 mg/L and the “Concentration of Homolog in Effluent n = 7” value (300 min) was 0.30 mg/L. For the same molecule, the “Concentration of Homolog in Effluent n = 8” value (300 min) was 0.41 mg/L, the “Concentration of Homolog in Effluent n = 9” value (300 min) was 0.45 mg/L and the “Concentration of Homolog in Effluent n = 10” value (300 min) was 0.42 mg/L. For the same molecule, the “Concentration of Homolog in Effluent n = 11” value (300 min) was 0.39 mg/L, the “Concentration of Homolog in Effluent n = 12” value (300 min) was 0.25 mg/L and the “Concentration of Homolog in Effluent n = 13” value (300 min) was 0.15 mg/L. The “Concentration of Homolog in Effluent n = 14” value (300 min) was 0.09 mg/L, the “Concentration of Homolog in Effluent n = 15” value (300 min) was 0.00 mg/L and the “Concentration of Homolog in Effluent n = 16” value (300 min) was 0.00 mg/L. For the same molecule, the “Concentration of Homolog in Effluent n = 17” value (300 min) was 0.00 mg/L, the “Cumul. (cumulative release in effluent)” value (300 min) was 98.15 mg and the “Concentration of Homolog in Effluent Total” value (360 min) was 1.20 mg/L. For the same molecule, the “Concentration of Homolog in Effluent n = 3” value (360 min) was 0.00 mg/L, the “Concentration of Homolog in Effluent n = 4” value (360 min) was 0.00 mg/L and the “Concentration of Homolog in Effluent n = 5” value (360 min) was 0.05 mg/L. For the same molecule, the “Concentration of Homolog in Effluent n = 6” value (360 min) was 0.11 mg/L, the “Concentration of Homolog in Effluent n = 7” value (360 min) was 0.15 mg/L and the “Concentration of Homolog in Effluent n = 8” value (360 min) was 0.19 mg/L. The “Concentration of Homolog in Effluent n = 9” value (360 min) was 0.23 mg/L, the “Concentration of Homolog in Effluent n = 10” value (360 min) was 0.20 mg/L and the “Concentration of Homolog in Effluent n = 11” value (360 min) was 0.17 mg/L. For the same molecule, the “Concentration of Homolog in Effluent n = 12” value (360 min) was 0.10 mg/L, the “Concentration of Homolog in Effluent n = 13” value (360 min) was 0.00 mg/L and the “Concentration of Homolog in Effluent n = 14” value (360 min) was 0.00 mg/L. The “Concentration of Homolog in Effluent n = 15” value (360 min) was 0.00 mg/L, the “Concentration of Homolog in Effluent n = 16” value (360 min) was 0.00 mg/L and the “Concentration of Homolog in Effluent n = 17” value (360 min) was 0.00 mg/L. The “Cumul. (cumulative release in effluent)” value (360 min) was 99.32 mg, the “Concentration of Homolog in Effluent Total” value (420 min) was 0.67 mg/L and the “Concentration of Homolog in Effluent n = 3” value (420 min) was 0.00 mg/L. For the same molecule, the “Concentration of Homolog in Effluent n = 4” value (420 min) was 0.00 mg/L, the “Concentration of Homolog in Effluent n = 5” value (420 min) was 0.00 mg/L and the “Concentration of Homolog in Effluent n = 6” value (420 min) was 0.06 mg/L. For the same molecule, the “Concentration of Homolog in Effluent n = 7” value (420 min) was 0.08 mg/L, the “Concentration of Homolog in Effluent n = 8” value (420 min) was 0.11 mg/L and the “Concentration of Homolog in Effluent n = 9” value (420 min) was 0.12 mg/L. The “Concentration of Homolog in Effluent n = 10” value (420 min) was 0.11 mg/L, the “Concentration of Homolog in Effluent n = 11” value (420 min) was 0.09 mg/L and the “Concentration of Homolog in Effluent n = 12” value (420 min) was 0.10 mg/L. The “Concentration of Homolog in Effluent n = 13” value (420 min) was 0.00 mg/L, the “Concentration of Homolog in Effluent n = 14” value (420 min) was 0.00 mg/L and the “Concentration of Homolog in Effluent n = 15” value (420 min) was 0.00 mg/L. For the same molecule, the “Concentration of Homolog in Effluent n = 16” value (420 min) was 0.00 mg/L, the “Concentration of Homolog in Effluent n = 17” value (420 min) was 0.00 mg/L and the “Cumul. (cumulative release in effluent)” value (420 min) was 99.74 mg. For the same molecule, the “Concentration of Homolog in Effluent Total” value (480 min) was 0.00 mg/L, the “Concentration of Homolog in Effluent n = 3” value (480 min) was 0.00 mg/L and the “Concentration of Homolog in Effluent n = 4” value (480 min) was 0.00 mg/L. The “Concentration of Homolog in Effluent n = 5” value (480 min) was 0.00 mg/L, the “Concentration of Homolog in Effluent n = 6” value (480 min) was 0.00 mg/L and the “Concentration of Homolog in Effluent n = 7” value (480 min) was 0.00 mg/L. For the same molecule, the “Concentration of Homolog in Effluent n = 8” value (480 min) was 0.00 mg/L, the “Concentration of Homolog in Effluent n = 9” value (480 min) was 0.00 mg/L and the “Concentration of Homolog in Effluent n = 10” value (480 min) was 0.00 mg/L. The “Concentration of Homolog in Effluent n = 11” value (480 min) was 0.00 mg/L, the “Concentration of Homolog in Effluent n = 12” value (480 min) was 0.00 mg/L and the “Concentration of Homolog in Effluent n = 13” value (480 min) was 0.00 mg/L. For the same molecule, the “Concentration of Homolog in Effluent n = 14” value (480 min) was 0.00 mg/L, the “Concentration of Homolog in Effluent n = 15” value (480 min) was 0.00 mg/L and the “Concentration of Homolog in Effluent n = 16” value (480 min) was 0.00 mg/L. The “Concentration of Homolog in Effluent n = 17” value (480 min) was 0.00 mg/L.

From patent publication US8808743B2, “Benzonatate compositions and methods of use” (priority 2010, dated 2014)
